The text below walks through data of ChEMBL document CHEMBL1125178, “Electrophilic gamma-lactone kappa-opioid receptor probes. Analogues of 2'-hydroxy-2-tetrahydrofurfuryl-5,9-dimethyl-6,7-benzomorphan diastereomers” (J Med Chem, 1991).

Test [1] has as its target Kappa-type opioid receptor (Cavia porcellus, UniProt P41144). Briefly: Displacement of [3H]bremazocine from opioid receptor kappa of guinea pig membrane. Background: In a radioligand displacement assay an active substance lowers the binding of a labelled ligand.
Test [2] can be described thus: Displacement of [3H]bremazocine from opioid receptor of guinea pig membrane. Further details: species or system Cavia porcellus.
Test [3] has as its target Opioid receptors; mu/kappa/delta (Homo sapiens, UniProt P41145+P41143+P35372). Description: Displacement of 0.5 nM [3H]bremazocine from opioid receptor sites in guinea pig membranes. It is filed as cell membranes, Cavia porcellus. The note with it: target entry is the homologue from another species.

Kappa-type opioid receptor, sequence (P41144 whole entry): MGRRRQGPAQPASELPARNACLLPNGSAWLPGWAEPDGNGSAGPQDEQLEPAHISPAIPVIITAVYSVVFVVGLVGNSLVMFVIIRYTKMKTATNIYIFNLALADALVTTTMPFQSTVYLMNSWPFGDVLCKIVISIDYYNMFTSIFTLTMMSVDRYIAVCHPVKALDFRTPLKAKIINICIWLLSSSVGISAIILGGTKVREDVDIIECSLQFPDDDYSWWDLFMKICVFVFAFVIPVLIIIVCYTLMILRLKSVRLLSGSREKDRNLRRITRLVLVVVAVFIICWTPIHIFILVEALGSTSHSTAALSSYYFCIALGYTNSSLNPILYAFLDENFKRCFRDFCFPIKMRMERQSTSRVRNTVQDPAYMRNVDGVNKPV

In general, IC50 refers to the point on the concentration scale where inhibition reaches its midpoint. Lower therefore signals inhibition by little substance. In the case of `C=C1C[C@@H](CN2CC[C@]3(C)c4cc(O)ccc4C[C@@H]2[C@@H]3C)OC1=O`, the IC50 in test [1] was found to be 400 nM; in test [2], 380 nM.
Take `C=C1C[C@H](CN2CC[C@]3(C)c4cc(O)ccc4C[C@@H]2[C@@H]3C)OC1=O`: the IC50 in test [2] is greater than 3000 nM.
Regarding `C[C@H]1[C@H]2Cc3ccc(O)cc3[C@@]1(C)CCN2C[C@@H]1C=CC(=O)O1`, the IC50 in test [1] stood at 5.4 nM; in test [2], 7.4 nM.
In the case of `C[C@H]1[C@H]2Cc3ccc(O)cc3[C@@]1(C)CCN2C[C@H]1CCCO1`, the 50% inhibitory concentration (IC50) in test [1] is 70 nM; in test [2], 84 nM.
`C=C1C[C@@H](CN2CC[C@@]3(C)c4cc(O)ccc4C[C@H]2[C@H]3C)OC1=O`: the IC50 in test [3] was determined as 1300 nM.
As for `O=C1CC[C@@]2(O)[C@H]3Cc4ccc(O)c5c4[C@@]2(CCN3CC2CC2)[C@H]1O5` [NALTREXONE], in test [2], the IC50 was 5.7 nM.
With `C[C@H]1[C@H]2Cc3ccc(O)cc3[C@@]1(C)CCN2C[C@H]1CCC(=O)O1`, the half-maximal inhibitory concentration (IC50) in test [1] worked out at 400 nM; in test [2], 620 nM.
`C[C@@H]1[C@@H]2Cc3ccc(O)cc3[C@]1(C)CCN2C[C@@H]1CCCO1`: in test [3], the IC50 came to 1000 nM. This counts as single-digit micromolar.
As for `C[C@H]1[C@H]2Cc3ccc(O)cc3[C@@]1(C)CCN2C[C@@H]1CCC(=O)O1`, the values for the 50% inhibitory concentration (IC50) in test [1] and in test [2] were 7.3 nM and 12 nM, respectively.
For `CC[C@@H]1[C@@H]2Cc3ccc(O)cc3[C@]1(CC)CCN2Cc1ccoc1`, the IC50 in test [2] was 2200 nM.
For the compound `CC[C@H]1[C@H]2Cc3ccc(O)cc3[C@@]1(CC)CCN2Cc1ccoc1`, the half-inhibitory concentration (IC50) in test [1] was found to be 1.6 nM; in test [2], 2.9 nM.
The matching figures for `C[C@H]1[C@H]2Cc3ccc(O)cc3[C@@]1(C)CCN2C[C@@H]1CCCO1`: 1.7 nM and 2.3 nM.
The matching figures for `C[C@H]1[C@H]2Cc3ccc(O)cc3[C@]1(C)CCN2Cc1ccco1`: 5.7 nM and 6.8 nM.
Regarding `C[C@H]1[C@H]2Cc3ccc(O)cc3[C@@]1(C)CCN2C[C@H]1C=CC(=O)O1`, the IC50 in test [1] was 74 nM; in test [2], 89 nM.
In the case of `C=CCN1CC[C@]23c4c5ccc(O)c4O[C@H]2C(=O)CC[C@@]3(O)[C@H]1C5` [NALOXONE], the IC50 in test [2] worked out at 23 nM.
On the same count and under the same terms, the same measure for `C=C1C[C@H](CN2CC[C@@]3(C)c4cc(O)ccc4C[C@H]2[C@H]3C)OC1=O`: 1800 nM.
